The results in this text go back to patent US20260001898A1, “Heteroaryl compounds as inhibitors of TYK2/JAK1, composition and application thereof” (Accro Bioscience (HK) Limited, priority 2022, published 2026).

The experiment relates to IFNα induced TYK2/JAK1 mediated STAT activation. Kind of experiment: Luciferase assay in L929 ISRE cells stimulated with IFN-α. It counts as cell-based. The settings on record: Mus musculus, IFN-α 100 ng/mL; for inhibition at 0.05 µM: 50 nM compound, read-out: Inhibitory activity % (50 nM); for inhibition at 0.2 µM: 200 nM compound, read-out: Inhibitory activity % (200 nM); for inhibition at 1 µM: 1000 nM compound, read-out: Inhibitory activity % (1000 nM). Here is the method:
• 1. L929 ISRE cells (5000 cells/well) were seeded on 96-well plates and incubated overnight at room temperature-; • 2. The cells were pretreated by adding different concentrations (10 nM, 50 nM, 100 nM, 200 nM or 1000 nM) of the test compounds for 2 hours; • 3. Added IFN-α (100 ng/mL) to stimulate cells for 6 hours; • 4. Removed the upper medium, add PBS (100 μL) and washed, then removed PBS; • 5. Added PLB lysis solution (50 μL) to each well, shook the well for 15 minutes; • 6. Transferred PLB lysis solution (30 μL) to a new 96-well whiteboard, added LAR II reagent (LAR II), then quickly read the 450 nm OD value with a plate washer; • 7. Added Stop & Glo reagent (30 μL), then read the 450 nm OD value using the plate washer. • 8. The final result was the OD value in step 6/OD value in step 7.

As to `COc1c(Nc2cc(NC(=O)C3CC3)nnc2C(N)=O)ncnc1-c1cc(P(=O)(C2CC2)C2CC2)n(C)n1` [Compound A3, 6-(cyclopropanecarboxamido)-4-((6-(5-(dicyclopropylphosphoryl)-1-methyl-1H-pyrazol-3-yl)-5-methoxypyrimidin-4-yl)amino)pyridazine-3-carboxamide], the inhibition at 0.05 µM is 34%, the inhibition at 0.2 µM was found to be 39% and the inhibition at 1 µM was 71%.

Take `COc1c(Nc2cc(Nc3ccccn3)nnc2C(N)=O)cccc1-c1cc(P(=O)(C2CC2)C2CC2)n(C)n1` [Compound A4, 4-((3-(5-(dicyclopropylphosphoryl)-1-methyl-1H-pyrazol-3-yl)-2-methoxyphenyl)amino)-6-(pyridin-2-ylamino)pyridazine-3-carboxamide]: the inhibition at 0.05 µM worked out at 61%, the inhibition at 0.2 µM was found to be 93% and the inhibition at 1 µM stood at 99%.

On to `COc1ccc(Nc2cc(Nc3cccc(-c4cc(P(=O)(C5CC5)C5CC5)n(C)n4)c3OC)c(C(N)=O)nn2)nc1` [Compound A5], for which the inhibition at 0.05 µM turned out to be 91%, the inhibition at 0.2 µM amounted to 97% and the inhibition at 1 µM stood at 99%.

Regarding `CCP(=O)(CC)c1cc(-c2cccc(Nc3cc(NC(=O)C4CC4)nnc3C(N)=O)c2OC)nn1C` [Compound A6, 6-(cyclopropanecarboxamido)-4-((3-(5-(diethylphosphoryl)-1-methyl-1H-pyrazol-3-yl)-2-methoxyphenyl)amino)pyridazine-3-carboxamide], the inhibition at 0.05 µM amounted to 23%, the inhibition at 0.2 µM was 28% and the inhibition at 1 µM came out at 96%.

As to `COc1c(Nc2cc(NC(=O)C3CC3)nnc2C(N)=O)cccc1-c1ncc(P(C)(C)=O)cn1` [Compound A7, 6-(cyclopropanecarboxamido)-4-((3-(5-(dimethylphosphoryl)pyrimidin-2-yl)-2-methoxyphenyl)amino)pyridazine-3-carboxamide], the inhibition at 0.05 µM is 18%, the inhibition at 0.2 µM was 25% and the inhibition at 1 µM is 64%.

Take `COc1c(Nc2cc(N3CCCC3)nnc2C(N)=O)cccc1-c1cc(P(=O)(C2CC2)C2CC2)n(C)n1` [Compound A11, 4-((3-(5-(dicyclopropylphosphoryl)-1-methyl-1H-pyrazol-3-yl)-2-methoxyphenyl)amino)-6-(pyrrolidin-1-yl)pyridazine-3-carboxamide]: the inhibition at 0.05 µM was determined as 6%, the inhibition at 0.2 µM stood at 86% and the inhibition at 1 µM is 95%.

For the compound `COc1c(-c2cc(P(=O)(C3CC3)C3CC3)n(C)n2)ccnc1Nc1cc(N)nnc1C(N)=O` [Compound A13, 6-Amino-4-((4-(5-(dicyclopropylphosphoryl)-1-methyl-1H-pyrazol-3-yl)-3-methoxypyridin-2-yl)amino)pyridazine-3-carboxamide], the inhibition at 0.05 µM is 9%, the inhibition at 0.2 µM stood at 71% and the inhibition at 1 µM turned out to be 95%.

For the compound `CCP(=O)(CC)c1cnc(-c2cccc(Nc3cc(NC(=O)C4CC4)nnc3C(N)=O)c2OC)nc1` [Compound A14], the inhibition at 0.2 µM amounted to 23% and the inhibition at 1 µM amounted to 76%.

On to `COc1c(-c2cc(P(=O)(C3CC3)C3CC3)n(C)n2)ccnc1Nc1cc(NC(=O)C2CC2)nnc1C(N)=O` [Compound A18, 6-(cyclopropanecarboxamido)-4-((4-(5-(dicyclopropylphosphoryl)-1-methyl-1H-pyrazol-3-yl)-3-methoxypyridin-2-yl)amino)pyridazine-3-carboxamide], for which the inhibition at 0.05 µM was 62%, the inhibition at 0.2 µM came to 79% and the inhibition at 1 µM stood at 79%.

For the compound `COc1c(Nc2nc(NC(=O)C3CC3)ncc2C(N)=O)cccc1-c1cc(P(=O)(C2CC2)C2CC2)n(C)n1` [Compound A19, 2-(cyclopropanecarboxamido)-4-((3-(5-(dicyclopropylphosphoryl)-1-methyl-1H-pyrazol-3-yl)-2-methoxyphenyl)amino)pyrimidine-5-carboxamide], the inhibition at 0.2 µM is 28% and the inhibition at 1 µM was found to be 71%.

`CNC(=O)Nc1cc(Nc2cccc(-c3cc(P(=O)(C4CC4)C4CC4)n(C)n3)c2OC)c(C(N)=O)nn1` [Compound A21]: the inhibition at 0.05 µM was found to be 16%, the inhibition at 0.2 µM amounted to 39% and the inhibition at 1 µM came out at 74%.

Turning to `COC(=O)Nc1cc(Nc2cccc(-c3cc(P(=O)(C4CC4)C4CC4)n(C)n3)c2OC)c(C(N)=O)nn1` [Compound A23], the inhibition at 0.2 µM stood at 38% and the inhibition at 1 µM was found to be 85%.

For the compound `[2H]C([2H])([2H])n1nc(-c2cccc(Nc3cc(NC(=O)C4CC4)nnc3C(N)=O)c2OC)cc1P(=O)(C1CC1)C1CC1` [Compound A24, 6-(cyclopropanecarboxamido)-4-((3-(5-(dicyclopropylphosphoryl)-1-(methyl-d3)-1H-pyrazol-3-yl)-2-methoxyphenyl)amino)pyridazine-3-carboxamide], the inhibition at 0.05 µM is 39%, the inhibition at 0.2 µM was found to be 90% and the inhibition at 1 µM worked out at 95%.

Turning to `COc1c(Nc2cc(Nc3ccccn3)nnc2C(N)=O)cccc1-c1cc(P(C)(C)=O)n(C)n1` [Compound A26], the inhibition at 1 µM came out at 80%.

Turning to `COc1ccc(Nc2cc(Nc3cccc(-c4cc(P(C)(C)=O)n(C)n4)c3OC)c(C(N)=O)nn2)nc1` [Compound A30], the inhibition at 0.05 µM worked out at 14%, the inhibition at 0.2 µM came out at 58% and the inhibition at 1 µM stood at 90%.

For the compound `COc1c(Nc2cc(Nc3ccc(C#N)cn3)nnc2C(N)=O)cccc1-c1cc(P(C)(C)=O)n(C)n1` [Compound A31], the inhibition at 0.05 µM was 9%, the inhibition at 0.2 µM came to 54% and the inhibition at 1 µM was 75%.

As to `COc1c(Nc2cc(Nc3ccc(F)cn3)nnc2C(N)=O)cccc1-c1cc(P(C)(C)=O)n(C)n1` [Compound A33], the inhibition at 0.05 µM is 45%, the inhibition at 0.2 µM was 62% and the inhibition at 1 µM is 81%.

For `COc1c(Nc2cc(Nc3cccc(C#N)n3)nnc2C(N)=O)cccc1-c1cc(P(=O)(C2CC2)C2CC2)n(C)n1` [Compound A34], the inhibition at 0.05 µM is 17%, the inhibition at 0.2 µM worked out at 67% and the inhibition at 1 µM came out at 95%.

In the case of `COc1c(Nc2cc(Nc3ncccn3)nnc2C(N)=O)cccc1-c1cc(P(=O)(C2CC2)C2CC2)n(C)n1` [Compound A38], the inhibition at 0.05 µM was 36%, the inhibition at 0.2 µM amounted to 66% and the inhibition at 1 µM was 89%.

In the case of `COc1c(Nc2cc(Nc3cnccn3)nnc2C(N)=O)cccc1-c1cc(P(=O)(C2CC2)C2CC2)n(C)n1` [Compound A39], the inhibition at 0.05 µM stood at 59%, the inhibition at 0.2 µM stood at 78% and the inhibition at 1 µM was 97%.

For the compound `COc1c(Nc2cc(Nc3ccncn3)nnc2C(N)=O)cccc1-c1cc(P(=O)(C2CC2)C2CC2)n(C)n1` [Compound A40], the inhibition at 0.05 µM was 61%, the inhibition at 0.2 µM stood at 80% and the inhibition at 1 µM was determined as 96%.

Take `[2H]C([2H])([2H])n1ccc(Nc2cc(Nc3cccc(-c4cc(P(=O)(C5CC5)C5CC5)n(C)n4)c3OC)c(C(N)=O)nn2)n1` [Compound A41]: the inhibition at 0.05 µM is 55%, the inhibition at 0.2 µM came out at 90% and the inhibition at 1 µM amounted to 95%.
